How the values were obtained:
Assay in all cases: KINOMEscan competition binding
Conditions in all cases: compound 1.0 µM
ACVR2B (human) = ACVR2B (human) (UniProt Q13705)
BMP2K (human) = BMP2K (human) (UniProt Q9NSY1)
BMPR1B (human) = BMPR1B (human) (UniProt O00238)
CDK17 (human) = CDK17 (human) (UniProt Q00537)
CDK5 (human) = CDK5 (human) (UniProt Q00535)
CDK8 (human) = CDK8 (human) (UniProt P49336)
CHEK2 (human) = CHEK2 (human) (UniProt O96017)
CSNK1G2 (human) = CSNK1G2 (human) (UniProt P78368)
CSNK1G3 (human) = CSNK1G3 (human) (UniProt Q9Y6M4)
DCLK1 (human) = DCLK1 (human) (UniProt O15075)
[1] = test system: EGFR (human), P00533 [L861Q]
[2] = test system: EGFR (human), P00533 [T790M/L858R]
EPHB1 (human) = EPHB1 (human) (UniProt P54762)
EPHB3 (human) = EPHB3 (human) (UniProt P54753)
FGFR4 (human) = FGFR4 (human) (UniProt P22455)
HIPK2 (human) = HIPK2 (human) (UniProt Q9H2X6)
KIT (human) = KIT (human) (UniProt P10721)
[3] = test system: KIT (human), P10721 [L576P]
LATS1 (human) = LATS1 (human) (UniProt O95835)
LTK (human) = LTK (human) (UniProt P29376)
MAP3K12 (human) = MAP3K12 (human) (UniProt Q12852)
MAPK10 (human) = MAPK10 (human) (UniProt P53779)
MARK2 (human) = MARK2 (human) (UniProt Q7KZI7)
MELK (human) = MELK (human) (UniProt Q14680)
NEK1 (human) = NEK1 (human) (UniProt Q96PY6)
NEK9 (human) = NEK9 (human) (UniProt Q8TD19)
PAK1 (human) = PAK1 (human) (UniProt Q13153)
[4] = test system: PIK3CA (human), P42336 [E542K]
[5] = test system: PIK3CA (human), P42336 [H1047L]
PIM1 (human) = PIM1 (human) (UniProt P11309)
PRKACA (human) = PRKACA (human) (UniProt P17612)
PRKCH (human) = PRKCH (human) (UniProt P24723)
PRKD1 (human) = PRKD1 (human) (UniProt Q15139)
PRKD2 (human) = PRKD2 (human) (UniProt Q9BZL6)
RIOK3 (human) = RIOK3 (human) (UniProt O14730)
RPS6KA2 KD2 (human) = RPS6KA2 KD2 (human) (UniProt Q15349)
SBK1 (human) = SBK1 (human) (UniProt Q52WX2)
STK17A (human) = STK17A (human) (UniProt Q9UEE5)
STK17B (human) = STK17B (human) (UniProt O94768)
STK3 (human) = STK3 (human) (UniProt Q13188)
TLK2 (human) = TLK2 (human) (UniProt Q86UE8)
TNIK (human) = TNIK (human) (UniProt Q9UKE5)

Sequence of STK3 (human) (Q13188 whole entry, looked up): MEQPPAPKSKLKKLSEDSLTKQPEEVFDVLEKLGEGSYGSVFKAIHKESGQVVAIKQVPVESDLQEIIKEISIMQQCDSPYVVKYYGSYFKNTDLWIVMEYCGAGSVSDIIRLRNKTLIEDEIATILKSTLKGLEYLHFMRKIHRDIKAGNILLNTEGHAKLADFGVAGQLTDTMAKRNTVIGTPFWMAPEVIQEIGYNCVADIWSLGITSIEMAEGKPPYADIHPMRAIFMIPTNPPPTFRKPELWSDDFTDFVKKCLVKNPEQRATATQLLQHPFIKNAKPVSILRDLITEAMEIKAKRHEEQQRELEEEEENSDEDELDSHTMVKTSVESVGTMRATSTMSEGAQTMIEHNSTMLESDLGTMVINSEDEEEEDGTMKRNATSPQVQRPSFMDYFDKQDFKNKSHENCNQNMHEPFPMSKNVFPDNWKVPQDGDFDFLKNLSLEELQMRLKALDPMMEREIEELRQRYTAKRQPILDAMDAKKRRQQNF
Sequence of LATS1 (human) (O95835 whole entry, looked up): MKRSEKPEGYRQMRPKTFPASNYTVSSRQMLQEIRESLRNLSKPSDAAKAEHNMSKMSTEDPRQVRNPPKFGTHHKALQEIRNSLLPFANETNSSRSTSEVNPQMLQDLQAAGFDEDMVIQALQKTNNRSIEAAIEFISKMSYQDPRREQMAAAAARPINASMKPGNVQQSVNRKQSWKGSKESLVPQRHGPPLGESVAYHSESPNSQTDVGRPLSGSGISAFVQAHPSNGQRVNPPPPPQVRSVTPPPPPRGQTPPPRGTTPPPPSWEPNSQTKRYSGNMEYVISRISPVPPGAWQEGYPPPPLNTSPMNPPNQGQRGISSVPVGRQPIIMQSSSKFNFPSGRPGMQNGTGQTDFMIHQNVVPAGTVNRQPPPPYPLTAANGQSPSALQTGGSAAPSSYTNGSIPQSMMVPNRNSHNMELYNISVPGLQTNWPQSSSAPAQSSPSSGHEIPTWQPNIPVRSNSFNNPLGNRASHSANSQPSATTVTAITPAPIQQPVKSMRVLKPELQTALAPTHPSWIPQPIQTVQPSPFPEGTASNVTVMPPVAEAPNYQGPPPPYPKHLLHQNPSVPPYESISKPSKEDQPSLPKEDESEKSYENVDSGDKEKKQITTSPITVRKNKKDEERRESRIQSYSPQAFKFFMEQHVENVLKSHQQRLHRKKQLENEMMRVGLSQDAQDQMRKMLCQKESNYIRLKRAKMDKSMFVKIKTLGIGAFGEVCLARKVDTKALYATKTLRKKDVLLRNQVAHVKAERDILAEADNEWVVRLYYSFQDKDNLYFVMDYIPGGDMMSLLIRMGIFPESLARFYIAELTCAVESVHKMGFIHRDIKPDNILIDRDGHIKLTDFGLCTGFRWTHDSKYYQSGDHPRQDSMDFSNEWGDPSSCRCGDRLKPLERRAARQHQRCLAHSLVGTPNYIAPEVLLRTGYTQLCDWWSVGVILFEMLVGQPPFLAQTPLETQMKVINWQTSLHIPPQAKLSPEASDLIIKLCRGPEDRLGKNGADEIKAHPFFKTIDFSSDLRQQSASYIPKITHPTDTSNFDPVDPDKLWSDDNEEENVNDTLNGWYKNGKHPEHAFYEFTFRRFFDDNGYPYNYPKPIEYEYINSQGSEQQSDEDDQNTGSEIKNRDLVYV
Sequence of RPS6KA2 KD2 (human) (Q15349 whole entry, looked up): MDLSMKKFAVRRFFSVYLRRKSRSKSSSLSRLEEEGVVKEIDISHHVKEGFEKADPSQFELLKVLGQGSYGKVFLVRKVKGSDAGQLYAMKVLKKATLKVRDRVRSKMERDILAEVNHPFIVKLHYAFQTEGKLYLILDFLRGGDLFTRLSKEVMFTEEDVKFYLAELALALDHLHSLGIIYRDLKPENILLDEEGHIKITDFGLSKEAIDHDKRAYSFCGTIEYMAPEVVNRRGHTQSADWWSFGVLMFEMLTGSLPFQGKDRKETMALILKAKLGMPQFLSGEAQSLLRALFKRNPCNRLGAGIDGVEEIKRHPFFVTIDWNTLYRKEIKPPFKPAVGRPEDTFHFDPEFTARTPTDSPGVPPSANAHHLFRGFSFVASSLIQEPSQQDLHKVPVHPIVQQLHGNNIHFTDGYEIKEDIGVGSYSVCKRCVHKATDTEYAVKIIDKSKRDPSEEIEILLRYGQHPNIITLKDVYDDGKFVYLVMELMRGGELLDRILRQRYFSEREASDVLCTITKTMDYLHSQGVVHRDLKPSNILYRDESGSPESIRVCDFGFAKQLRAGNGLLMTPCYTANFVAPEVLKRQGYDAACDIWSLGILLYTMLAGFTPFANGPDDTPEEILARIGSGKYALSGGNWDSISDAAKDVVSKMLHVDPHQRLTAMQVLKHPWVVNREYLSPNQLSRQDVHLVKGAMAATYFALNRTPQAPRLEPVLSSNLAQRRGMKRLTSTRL
Sequence of CDK17 (human) (Q00537 whole entry, looked up): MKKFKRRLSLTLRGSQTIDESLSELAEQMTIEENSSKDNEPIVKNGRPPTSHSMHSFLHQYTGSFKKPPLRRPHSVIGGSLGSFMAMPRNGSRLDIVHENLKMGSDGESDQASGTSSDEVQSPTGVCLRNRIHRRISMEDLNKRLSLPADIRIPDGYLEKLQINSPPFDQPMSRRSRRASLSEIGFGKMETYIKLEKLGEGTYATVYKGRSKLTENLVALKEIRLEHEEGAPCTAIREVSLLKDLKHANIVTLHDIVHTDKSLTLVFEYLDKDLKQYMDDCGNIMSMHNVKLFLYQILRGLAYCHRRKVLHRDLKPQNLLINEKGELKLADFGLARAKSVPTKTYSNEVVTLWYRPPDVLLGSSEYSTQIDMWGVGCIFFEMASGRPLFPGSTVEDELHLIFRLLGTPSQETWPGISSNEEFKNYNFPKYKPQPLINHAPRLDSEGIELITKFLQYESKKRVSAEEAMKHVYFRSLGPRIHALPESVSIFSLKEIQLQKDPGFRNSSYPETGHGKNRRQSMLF
Sequence of SBK1 (human) (Q52WX2 whole entry, looked up): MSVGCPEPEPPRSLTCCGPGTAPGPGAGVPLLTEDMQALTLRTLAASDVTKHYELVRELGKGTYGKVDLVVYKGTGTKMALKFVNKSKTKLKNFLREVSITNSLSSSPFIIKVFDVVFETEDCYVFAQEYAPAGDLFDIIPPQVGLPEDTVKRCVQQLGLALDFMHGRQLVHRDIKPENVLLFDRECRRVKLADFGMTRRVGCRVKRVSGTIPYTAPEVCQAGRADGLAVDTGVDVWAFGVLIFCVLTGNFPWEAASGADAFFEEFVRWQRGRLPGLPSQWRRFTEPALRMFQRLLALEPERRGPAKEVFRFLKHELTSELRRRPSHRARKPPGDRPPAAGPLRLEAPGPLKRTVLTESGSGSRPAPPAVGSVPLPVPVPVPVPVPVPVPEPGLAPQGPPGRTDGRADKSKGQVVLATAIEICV
Sequence of PIK3CA (human), P42336 [E542K] (P42336 whole entry E542K, looked up): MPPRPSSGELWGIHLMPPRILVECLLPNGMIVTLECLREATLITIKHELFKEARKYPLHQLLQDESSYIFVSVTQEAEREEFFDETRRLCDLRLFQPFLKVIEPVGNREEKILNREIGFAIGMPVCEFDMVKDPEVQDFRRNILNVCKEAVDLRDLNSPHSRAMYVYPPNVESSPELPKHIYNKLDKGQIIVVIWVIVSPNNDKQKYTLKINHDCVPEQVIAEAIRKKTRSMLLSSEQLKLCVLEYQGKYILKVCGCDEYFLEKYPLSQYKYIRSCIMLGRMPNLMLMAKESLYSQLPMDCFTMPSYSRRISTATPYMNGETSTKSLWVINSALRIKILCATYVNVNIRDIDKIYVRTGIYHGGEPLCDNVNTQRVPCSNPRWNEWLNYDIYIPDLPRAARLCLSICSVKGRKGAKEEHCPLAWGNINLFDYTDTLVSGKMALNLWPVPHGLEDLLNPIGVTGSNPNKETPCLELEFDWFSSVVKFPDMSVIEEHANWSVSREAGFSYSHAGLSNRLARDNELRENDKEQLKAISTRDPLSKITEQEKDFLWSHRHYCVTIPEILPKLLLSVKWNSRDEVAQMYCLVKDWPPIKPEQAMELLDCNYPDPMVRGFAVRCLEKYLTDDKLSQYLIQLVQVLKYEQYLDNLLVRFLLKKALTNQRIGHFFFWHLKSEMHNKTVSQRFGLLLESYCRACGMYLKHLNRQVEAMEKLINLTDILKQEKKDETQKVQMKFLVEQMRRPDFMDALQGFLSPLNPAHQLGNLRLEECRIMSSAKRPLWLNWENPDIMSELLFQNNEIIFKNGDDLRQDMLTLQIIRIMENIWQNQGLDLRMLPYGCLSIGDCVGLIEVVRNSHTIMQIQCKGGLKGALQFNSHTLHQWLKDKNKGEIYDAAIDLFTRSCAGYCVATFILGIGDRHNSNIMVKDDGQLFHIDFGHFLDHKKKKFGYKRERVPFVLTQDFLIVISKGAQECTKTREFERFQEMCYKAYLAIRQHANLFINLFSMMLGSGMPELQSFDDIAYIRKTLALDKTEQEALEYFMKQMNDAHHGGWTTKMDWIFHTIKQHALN
Sequence of MELK (human) (Q14680 whole entry, looked up): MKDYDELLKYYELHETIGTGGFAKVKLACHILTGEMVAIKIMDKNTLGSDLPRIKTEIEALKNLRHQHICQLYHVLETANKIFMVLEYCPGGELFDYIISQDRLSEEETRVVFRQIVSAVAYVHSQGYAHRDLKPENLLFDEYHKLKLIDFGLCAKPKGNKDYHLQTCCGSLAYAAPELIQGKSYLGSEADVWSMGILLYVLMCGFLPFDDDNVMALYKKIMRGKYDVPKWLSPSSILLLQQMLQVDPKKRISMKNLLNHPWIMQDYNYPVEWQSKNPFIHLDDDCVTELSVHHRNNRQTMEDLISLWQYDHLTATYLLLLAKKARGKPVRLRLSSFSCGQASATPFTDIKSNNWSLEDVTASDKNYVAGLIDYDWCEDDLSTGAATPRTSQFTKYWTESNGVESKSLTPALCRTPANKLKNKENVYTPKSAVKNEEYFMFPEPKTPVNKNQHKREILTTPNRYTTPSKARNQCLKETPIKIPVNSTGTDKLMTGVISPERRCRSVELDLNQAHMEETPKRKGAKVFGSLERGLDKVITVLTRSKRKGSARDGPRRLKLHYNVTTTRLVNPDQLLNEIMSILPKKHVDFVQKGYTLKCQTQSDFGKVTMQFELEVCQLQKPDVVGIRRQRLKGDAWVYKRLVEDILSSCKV
Sequence of PIK3CA (human), P42336 [H1047L] (P42336 whole entry H1047L, looked up): as the sequence (P42336 whole entry E542K, looked up) above, with K542E, H1047L counted along it

SMILES: CN(C)C/C=C/C(=O)Nc1cccc(C(=O)Nc2ccc(Nc3nccc(-c4c(-c5ccccc5)nn5ccccc45)n3)cc2)c1
- kinase still bound, per cent of control (ACVR2B (human)): 9.6%
- kinase still bound, per cent of control (BMP2K (human)): 100%
- kinase still bound, per cent of control (BMPR1B (human)): 47%
- kinase still bound, per cent of control (CDK17 (human)): 100%
- kinase still bound, per cent of control (CDK5 (human)): 100%
- kinase still bound, per cent of control (CDK8 (human)): 100%
- kinase still bound, per cent of control (CHEK2 (human)): 100%
- kinase still bound, per cent of control (CSNK1G2 (human)): 0.85%
- kinase still bound, per cent of control (CSNK1G3 (human)): 1.2%
- kinase still bound, per cent of control (DCLK1 (human)): 93%
- kinase still bound, per cent of control [1]: 0.75%
- kinase still bound, per cent of control [2]: 36%
- kinase still bound, per cent of control (EPHB1 (human)): 84%
- kinase still bound, per cent of control (EPHB3 (human)): 86%
- kinase still bound, per cent of control (FGFR4 (human)): 100%
- kinase still bound, per cent of control (HIPK2 (human)): 97%
- kinase still bound, per cent of control (KIT (human)): 0.15%
- kinase still bound, per cent of control [3]: 3%
- kinase still bound, per cent of control (LATS1 (human)): 95%
- kinase still bound, per cent of control (LTK (human)): 83%
- kinase still bound, per cent of control (MAP3K12 (human)): 84%
- kinase still bound, per cent of control (MAPK10 (human)): 0%
- kinase still bound, per cent of control (MARK2 (human)): 98%
- kinase still bound, per cent of control (MELK (human)): 100%
- kinase still bound, per cent of control (NEK1 (human)): 100%
- kinase still bound, per cent of control (NEK9 (human)): 100%
- kinase still bound, per cent of control (PAK1 (human)): 98%
- kinase still bound, per cent of control [4]: 91%
- kinase still bound, per cent of control [5]: 77%
- kinase still bound, per cent of control (PIM1 (human)): 84%
- kinase still bound, per cent of control (PRKACA (human)): 99%
- kinase still bound, per cent of control (PRKCH (human)): 100%
- kinase still bound, per cent of control (PRKD1 (human)): 20%
- kinase still bound, per cent of control (PRKD2 (human)): 15%
- kinase still bound, per cent of control (RIOK3 (human)): 97%
- kinase still bound, per cent of control (RPS6KA2 KD2 (human)): 82%
- kinase still bound, per cent of control (SBK1 (human)): 92%
- kinase still bound, per cent of control (STK17A (human)): 93%
- kinase still bound, per cent of control (STK17B (human)): 100%
- kinase still bound, per cent of control (STK3 (human)): 99%
- kinase still bound, per cent of control (TLK2 (human)): 100%
- kinase still bound, per cent of control (TNIK (human)): 27%

SMILES: Cc1cc(NC(=O)c2cccc(NC(=O)/C=C/CN(C)C)c2)ccc1Nc1nccc(-c2cccnc2)n1
- kinase still bound, per cent of control (ACVR2B (human)): 100%
- kinase still bound, per cent of control (BMP2K (human)): 94%
- kinase still bound, per cent of control (BMPR1B (human)): 92%
- kinase still bound, per cent of control (CDK17 (human)): 100%
- kinase still bound, per cent of control (CDK5 (human)): 100%
- kinase still bound, per cent of control (CDK8 (human)): 51%
- kinase still bound, per cent of control (CHEK2 (human)): 95%
- kinase still bound, per cent of control (CSNK1G2 (human)): 73%
- kinase still bound, per cent of control (CSNK1G3 (human)): 100%
- kinase still bound, per cent of control (DCLK1 (human)): 100%
- kinase still bound, per cent of control [1]: 100%
- kinase still bound, per cent of control [2]: 81%
- kinase still bound, per cent of control (EPHB1 (human)): 100%
- kinase still bound, per cent of control (EPHB3 (human)): 100%
- kinase still bound, per cent of control (FGFR4 (human)): 100%
- kinase still bound, per cent of control (HIPK2 (human)): 71%
- kinase still bound, per cent of control (KIT (human)): 3.5%
- kinase still bound, per cent of control [3]: 100%
- kinase still bound, per cent of control (LATS1 (human)): 91%
- kinase still bound, per cent of control (LTK (human)): 100%
- kinase still bound, per cent of control (MAP3K12 (human)): 99%
- kinase still bound, per cent of control (MAPK10 (human)): 0%
- kinase still bound, per cent of control (MARK2 (human)): 77%
- kinase still bound, per cent of control (MELK (human)): 71%
- kinase still bound, per cent of control (NEK1 (human)): 81%
- kinase still bound, per cent of control (NEK9 (human)): 100%
- kinase still bound, per cent of control (PAK1 (human)): 100%
- kinase still bound, per cent of control [4]: 100%
- kinase still bound, per cent of control [5]: 100%
- kinase still bound, per cent of control (PIM1 (human)): 100%
- kinase still bound, per cent of control (PRKACA (human)): 100%
- kinase still bound, per cent of control (PRKCH (human)): 94%
- kinase still bound, per cent of control (PRKD1 (human)): 100%
- kinase still bound, per cent of control (PRKD2 (human)): 100%
- kinase still bound, per cent of control (RIOK3 (human)): 72%
- kinase still bound, per cent of control (RPS6KA2 KD2 (human)): 100%
- kinase still bound, per cent of control (SBK1 (human)): 96%
- kinase still bound, per cent of control (STK17A (human)): 24%
- kinase still bound, per cent of control (STK17B (human)): 72%
- kinase still bound, per cent of control (STK3 (human)): 48%
- kinase still bound, per cent of control (TLK2 (human)): 100%
- kinase still bound, per cent of control (TNIK (human)): 56%

Reference: the kinase profiling compilation of Christmann-Franck et al. (2016)
